# Reference: patent US6610523B1, “Cytokine-, stress-, and oncoprotein-activated human protein kinase kinases” (University of Massachusetts, priority 1995, dated 2003)
# Assays:
# Type in all cases: cell-based
# [1] = system: JNK1; assay: Immunecomplex protein kinase assay of JNK1 from treated HeLa cells, ATF2 as substrate; conditions: for JNK1 activation (in words): PMA 10 nM, EGF 10 nM, sorbitol 300 mM, interleukin-1 10 ng/ml, TNFα 10 ng/ml; for Relative Protein Kinase Activity JNK: control = 1.0
# Protocol: (§1) The effect of phorbol ester, EGF, UV radiation, osmotic stress, IL-1, tumor necrosis factor (TNF), and LPS on p38 MAP kinase and JNK1 activity were measured in immunecomplex protein kinase assays using ATP [γ-^32P] and ATF2 as substrates. TNFα and IL-1α were from Genzyme Corp. Lipolysaccharide (LPS) was isolated from lyophilized Salmonella minesota Re595 bacteria as described (Mathison et a. (1988) J. Clin. Invest. 81:1925). Phorbol myristate acetate was from Sigma. EGF was purified from mouse salivary glands (Davis (1988) J. Biol. Chem. 263:9462). Kinase assays were performed using immunoprecipitates of p38 and JNK. The immunocomplexes were washed twice with kinase buffer (described above), and the assays initiated by the addition of 1 μg of ATF2 and 50 μM [γ-^32P]ATP (10 Ci/mmol) in a final volume of 25 μl. The reactions were terminated after 30 minutes at 30° C. by addition of Laemmli sample buffer. The phosphorylation of ATF2 was examined after SDS-PAGE by autoradiography, and the rate of ATF2 phosphorylation quantitated by PhosphorImager analysis. […]
# [2] = system: p38 MAP kinase; assay: Immunecomplex protein kinase assay of p38 MAP kinase from treated HeLa cells, ATF2 as substrate; conditions: for p38 activation (in words): PMA 10 nM, EGF 10 nM, sorbitol 300 mM, interleukin-1 10 ng/ml, TNFα 10 ng/ml; for Relative Protein Kinase Activity p38: control = 1.0
# Protocol: as §1
# [3] = system: p38 MAP kinase; assay: p38 MAP kinase immunecomplex assay (ATF2 substrate) in transfected COS-1 cells; conditions: COS-1 cells transfected with epitope-tagged p38; 10 nM EGF
# Protocol: COS-1 cells were transfected with epitope-tagged p38 MAP kinase, together with an empty expression vector or an expression vector encoding MEK1, MKK3, or MKK4α. Some of the cultures were exposed to UV radiation (40 J/m^2) or treated with 10 nM EGF. p38 MAP kinase was isolated by immunoprecipitation with M2 monoclonal antibody, and the protein kinase activity was measured in the immunecomplex with [γ-^32P]ATP and ATF2 as substrates. The product of the phosphorylation reaction was visualized after SDS-PAGE by autoradiography. […] MKK3 and MKK4 phosphorylation of ATF2 was similar to that seen with p38 MAP kinase isolated from UV-irradiated cells.
# [4] = system: JNK1; assay: Immunecomplex protein kinase assay of JNK1 from CHO cells that express human CD14, ATF2 as substrate
# Protocol: (§2) The effect of phorbol ester, EGF, UV radiation, osmotic stress, IL-1, tumor necrosis factor (TNF), and LPS on p38 MAP kinase and JNK1 activity were measured in immunecomplex protein kinase assays using ATP [γ-^32P] and ATF2 as substrates. TNFα and IL-1α were from Genzyme Corp. Lipolysaccharide (LPS) was isolated from lyophilized Salmonella minesota Re595 bacteria as described (Mathison et a. (1988) J. Clin. Invest. 81:1925). Phorbol myristate acetate was from Sigma. EGF was purified from mouse salivary glands (Davis (1988) J. Biol. Chem. 263:9462). Kinase assays were performed using immunoprecipitates of p38 and JNK. The immunocomplexes were washed twice with kinase buffer (described above), and the assays initiated by the addition of 1 μg of ATF2 and 50 μM [γ-^32P]ATP (10 Ci/mmol) in a final volume of 25 μl. The reactions were terminated after 30 minutes at 30° C. by addition of Laemmli sample buffer. The phosphorylation of ATF2 was examined after SDS-PAGE by autoradiography, and the rate of ATF2 phosphorylation quantitated by PhosphorImager analysis.
# (§3) The effect of LPS on the activity of p38 was examined using CHO cells that express human CD14.
# [5] = system: p38 MAP kinase; assay: Immunecomplex protein kinase assay of p38 MAP kinase from CHO cells that express human CD14, ATF2 as substrate
# Protocol: as §2, §3
# [6] = system: JNK1; assay: JNK1 immunecomplex kinase assay (c-Jun substrate) in CHO cells expressing epitope-tagged JNK1 after osmotic shock
# Protocol: CHO cells were co-transfected with the plasmid pCMV-Flag-Jnk1 and pRSV-Neo (Dérijard et al. (1994) supra) . A stable cell line expressing epitope-tagged Jnk1 (Flag; Immunex Corp.) was isolated by selection with Geneticin (Gibco-BRL). The cells were incubated with 0, 100, 150, 300, 600, or 1000 mM sorbitol for 1 hour at 37° C. The cells were collected in lysis buffer (20 mM Tris, pH 7.4, 1% TRITON® X-100, 2 mM EDTA, 137 mM NaCl, 25 mM β-glycerophosphate, 1 mM orthovanadate, 2 mM pyrophosphate, 10% glycerol, 1 mM phenylmethylsulfonyl fluoride, 10 μg/ml leupeptin) and a soluble extract was obtained by centrifugation at 100,000 g for 30 minutes at […]. The epitope-tagged JNK1 was isolated by immunoprecipitation with the monoclonal antibody M2 (Immunex Corp.). The immunoprecipitates were washed extensively with lysis buffer. Immunecomplex kinase assays were done in 25 μl of 25 mM Hepes, pH 7.4, 25 mM MgCl2, 25 mM β-glycerophosphate, 2 mM dithiothreitol, 100 AM orthovanadate, and 50 AM ATP [γ-^32P] (10 Ci/mmole) with 2.5 μg of bacterially expressed c-Jun (residues 1-79) fused to glutathione-S-transferase (GST) as a substrate. The phosphorylation of c-Jun was examined after SDS-PAGE by autoradiography and PhosphorImager (Molecular Dynamics Inc.) analysis.
# The time course of JNK1 protein kinase activation was measured in cells incubated in medium supplemented with 300 mM sorbitol as described above. Increased JNK1 activity was observed within 5 minutes of exposure to sorbitol, with maximum activity occurring after 15-30 minutes.
# [7] = system: ATF2; assay: Electrophoretic mobility of ATF2 by immuno-blot in JNK1-transfected CHO cells; conditions: IL-1α 10 ng/ml or fetal bovine serum 20%, 30 minutes at 37° C.
# Protocol: CHO cells were maintained in Ham's F12 medium supplemented with 5% […] (Gibco-BRL). Cells were labeled and transfected with JNK1 as described above. CHO cells were treated with UV-C (40 J/m^2), IL-1α (10 ng/ml) (Genzyme), or fetal bovine serum (20%) (Gibco-BRL). The cells were incubated for 30 minutes at 37° C. prior to harvesting. The electrophoretic mobility of ATF2 after SDS-PAGE was examined by protein immuno-blot analysis.
# [8] = system: reporter plasmid pG5E1bLuc (GAL4 sites, firefly luciferase gene); assay: GAL4-ATF2 fusion protein co-transfection assay with luciferase reporter plasmid pG5E1bLuc in CHO cells; conditions: luciferase and β-galactosidase mean activity ratio of three experiments
# Protocol: A fusion protein consisting of ATF2 and the GAL4 DNA binding domain was expressed in CHO cells as described above. The activity of the GAL4-ATF2 fusion protein was measured in co-transfection assays with the reporter plasmid pG5E1bLuc (Seth et al. (1992) J. Biol. Chem. 267:24796, hereby specifically incorporated by reference). The reporter plasmid contains five GAL4 sites cloned upstream of a minimal promoter element and the firefly luciferase gene. Transfection efficiency was monitored with a control plasmid that expresses β-galactosidase (pCH110; Pharmacia-LKB Biotechnology). The luciferase and β-galactosidase activity detected in cell extracts was measured as the mean activity ratio of three experiments (Gupta et al. (1993) Proc. Natl. Acad. Sci. USA 90:3216, hereby specifically incorporated by reference).
# [9] = CHO cells that express human CD14, 10 ng/ml, control = 1.0
Molecule,JNK1 activation (in words) [1],Relative Protein Kinase Activity JNK [1],p38 activation (in words) [2],Relative Protein Kinase Activity p38 [2],other results
Tumor Necrosis Factor,strongly activated,19.3,strongly activated,10.3,
Epidermal Growth Factor: EGF purified from mouse salivary glands,only weakly activated,1.9,only weakly activated,2.1,ATF2 phosphorylation by p38 MAP kinase isolated from treated cells (in words) [3]: not phosphorylated
Lipopolysaccharide,,,,,"Relative Protein Kinase Activity JNK [4, 9]: 3.6; JNK1 activation (in words) ([4]; CHO cells, 10 ng/ml LPS): only slightly activated; Relative Protein Kinase Activity p38 [5, 9]: 3.7; p38 activation (in words) ([5]; CHO cells, 10 ng/ml LPS): only slightly activated"
OC[C@@H](O)[C@@H](O)[C@H](O)[C@@H](O)CO [sorbitol],strongly activated,18.1,strongly activated,4.2,"time of maximum JNK1 activity ([6]; 300 mM sorbitol): 15 to 30 min; time to increased JNK1 activity ([6]; 300 mM sorbitol): ≤ 5 min; JNK1 activation (in words) ([6]; 100, 150, 300, 600 or 1000 mM sorbitol, 1 hour at 37° C.): JNK1 activation was observed at all concentrations"
"CCCCCCCCCCCCCC(=O)O[C@@H]1[C@@H](C)[C@@]2(O)[C@@H](C=C(CO)C[C@]3(O)C(=O)C(C)=C[C@@H]23)[C@@H]2C(C)(C)[C@]12OC(C)=O [Phorbol Ester, Phorbol myristate acetate]",very weakly activated,2.3,very weakly activated,2.9,
"Interleukin-1: IL-1α from Genzyme Corp., pro-inflammatory cytokine",strongly activated,8.9,strongly activated,6.2,shift in ATF2 electrophoretic mobility (in words) [7]: A shift in ATF2 electrophoretic mobility was observed
GAL4-ATF2 (Ala^69.71): GAL4-ATF2 fusion protein with Thr69 and Thr71 replaced with Ala (protein) MKLLSSIEQACDICRLKKLKCSKEKPKCAKCLKNNWECRYSPKTKRSPLTRAHLTEVESRLERLEQLFLLIFPREDLDMILKMDSLQDIKALLTGLFVQDNVNKDAVTDRLASVETDMPLTLRQHRISATSSSEESSNKGQRQLTVSMKFKLHVNSARQYKDLWNMSDDKPFLCTAPGCGQRFTNEDHLAVHKHKHEMTLKFGPARNDSVIVADQAPAPTRFLKNCEEVGLFNELASPFENEFKKASEDDIKKMPLDLSPLATPIIRSKIEEPSVVETTHQDSPLPHPESTTSDEKEVPLAQTAQPTSAIVRPASLQVPNVLLTSSDSSVIIQQAVPSPTSSTVITQAPSSNRPIVPVPGPFPLLLHLPNGQTMPVAIPASITSSNVHVPAAVPLVRPVTMVPSVPGIPGPSSPQPVQSEAKMRLKAALTQQHPPVTNGDTVKGHGSGLVRTQSEESRPQSLQQPATSTTETPASPAHTTPQTQSTSGRRRRAANEDPDEKRRKFLERNRAAASRCRQKRKVWVQSLEKKAEDLSSLNGQLQSEVTLLRNEVAQLKQLLLAHKDCPVTAMQKKSGYHTADKDDSSEDISVPSSPHTEAIQHSSVSTSNGVSSTSKAEAVATSVLTQMADQSTEPALSQIVMAPSSQSQPSGS,,,,,"LUCIFERASE ACTIVITY [8]: 29,000 Light Units/OD"
"GAL4-ATF2 (wild type): fusion protein consisting of ATF2 and the GAL4 DNA binding domain, wild-type Thr69,71 (protein) MKLLSSIEQACDICRLKKLKCSKEKPKCAKCLKNNWECRYSPKTKRSPLTRAHLTEVESRLERLEQLFLLIFPREDLDMILKMDSLQDIKALLTGLFVQDNVNKDAVTDRLASVETDMPLTLRQHRISATSSSEESSNKGQRQLTVSMKFKLHVNSARQYKDLWNMSDDKPFLCTAPGCGQRFTNEDHLAVHKHKHEMTLKFGPARNDSVIVADQTPTPTRFLKNCEEVGLFNELASPFENEFKKASEDDIKKMPLDLSPLATPIIRSKIEEPSVVETTHQDSPLPHPESTTSDEKEVPLAQTAQPTSAIVRPASLQVPNVLLTSSDSSVIIQQAVPSPTSSTVITQAPSSNRPIVPVPGPFPLLLHLPNGQTMPVAIPASITSSNVHVPAAVPLVRPVTMVPSVPGIPGPSSPQPVQSEAKMRLKAALTQQHPPVTNGDTVKGHGSGLVRTQSEESRPQSLQQPATSTTETPASPAHTTPQTQSTSGRRRRAANEDPDEKRRKFLERNRAAASRCRQKRKVWVQSLEKKAEDLSSLNGQLQSEVTLLRNEVAQLKQLLLAHKDCPVTAMQKKSGYHTADKDDSSEDISVPSSPHTEAIQHSSVSTSNGVSSTSKAEAVATSVLTQMADQSTEPALSQIVMAPSSQSQPSGS",,,,,"LUCIFERASE ACTIVITY [8]: 320,000 Light Units/OD"
